Reference: ChEMBL document CHEMBL1139698, “Potent, selective pyrimidinetrione-based inhibitors of MMP-13” (Bioorg Med Chem Lett, 2006)

Experiments:
[1] = species: Homo sapiens; experiment: Selectivity for MMP13 over MMP12
[2] = species: Homo sapiens; experiment: Selectivity for MMP13 over MMP2
[3] = species: Homo sapiens; experiment: Selectivity for MMP13 over MMP8
[4] = target: T1, Collagenase 3 (Homo sapiens, UniProt P45452)
[5] = target: Collagenase 3 (Rattus norvegicus, UniProt P23097); experiment: Inhibition of MMP13 in rat plasma; format: cell-free
[6] = species: Homo sapiens; experiment: Selectivity for MMP13 over MMP14
[7] = Plasma protein binding in rat; format: ADME, cell-free; conditions: read-out: PPB
[8] = Half life in rat; format: ADME, organism-based; conditions: in vivo
[9] = tested on: Cartilage tissue; experiment: Inhibition of bovine nasal cartilage degradation; format: functional, tissue-based; conditions: Bos taurus
[10] = target: T1, Collagenase 3; experiment: Inhibition of MMP13 in hamster synovial fluid; conditions: Cricetulus griseus
[11] = target: Matrix metalloproteinase (1 and 13) (Homo sapiens) (UniProt P45452+P03956); experiment: Selectivity for MMP13 over MMP1; format: protein assay
Matrix metalloproteinase (1 and 13) (Homo sapiens), sequence (P03956 whole entry, looked up, other chains not shown): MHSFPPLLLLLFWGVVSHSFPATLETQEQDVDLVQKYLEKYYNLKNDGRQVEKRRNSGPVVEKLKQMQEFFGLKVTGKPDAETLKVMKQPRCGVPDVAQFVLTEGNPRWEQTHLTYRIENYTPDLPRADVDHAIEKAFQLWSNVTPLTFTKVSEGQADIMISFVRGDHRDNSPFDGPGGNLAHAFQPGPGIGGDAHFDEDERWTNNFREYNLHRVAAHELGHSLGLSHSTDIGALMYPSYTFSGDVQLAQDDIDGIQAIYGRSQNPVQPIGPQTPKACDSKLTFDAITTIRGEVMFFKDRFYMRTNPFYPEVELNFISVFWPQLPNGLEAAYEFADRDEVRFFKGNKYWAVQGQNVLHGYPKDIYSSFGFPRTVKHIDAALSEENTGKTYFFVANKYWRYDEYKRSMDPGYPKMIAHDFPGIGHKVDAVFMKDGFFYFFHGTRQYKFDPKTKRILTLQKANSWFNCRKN

[12] = species: Homo sapiens; experiment: Selectivity for MMP13 over MMP9
[13] = Plasma clearance in rat; format: ADME, organism-based
[14] = Volume of distribution in rat; format: ADME, organism-based; conditions: in vivo, read-out: Vdss
[15] = species: Homo sapiens; experiment: Selectivity for MMP13 over MMP3

Structure (SMILES): CCOCCC1(Oc2ccc(Oc3ccc(C(=O)Nc4ccccc4)cc3)cc2)C(=O)NC(=O)NC1=O
- Selectivity ratio [1]: 50
- Selectivity ratio [2]: 58
- Selectivity ratio [3]: 200
- IC50 [4]: 0.84 nM

Structure (SMILES): COCCC1(Oc2ccc(Oc3ccc(-c4nc(-c5ccc(C#N)cc5)co4)cc3)cc2)C(=O)NC(=O)NC1=O
- Selectivity ratio [1]: 619
- Selectivity ratio [2]: 397
- IC50 [5]: 7200 nM
- Selectivity ratio [6]: 540
- fraction unbound [7]: < 0.01
- Selectivity ratio [3]: 394
- half-life [8]: 6.9 h
- IC50 [9]: 40 nM
- ED50 [10]: 1 mg/kg
- Selectivity ratio [11]: 2400
- Selectivity ratio [12]: 540
- clearance [13]: 0.0378 L/h/kg
- Vd [14]: 0.34 L/kg
- Selectivity ratio [15]: 1700
- IC50 [4]: 0.84 nM

Structure (SMILES): CCOCCC1(Oc2ccc(Oc3ccc(C(=O)Nc4ccccn4)cc3)cc2)C(=O)NC(=O)NC1=O
- Selectivity ratio [1]: 27
- Selectivity ratio [2]: 27
- Selectivity ratio [3]: 15
- IC50 [4]: 3.9 nM

Structure (SMILES): CCOCCC1(Oc2ccc(Oc3ccc(-c4nc(-c5cccc(F)c5)co4)cc3)cc2)C(=O)NC(=O)NC1=O
- Selectivity ratio [1]: 906
- Selectivity ratio [2]: 292
- Selectivity ratio [3]: 133
- IC50 [4]: 0.36 nM

Structure (SMILES): CCOCCC1(Oc2ccc(Oc3ccc(-c4nc(-c5ccccc5)no4)cc3)cc2)C(=O)NC(=O)NC1=O
- Selectivity ratio [1]: 138
- Selectivity ratio [2]: 54
- Selectivity ratio [3]: 208
- IC50 [4]: 3.4 nM

Structure (SMILES): CCOCCC1(Oc2ccc(Oc3ccc(-c4nc(-c5ccccc5C#N)co4)cc3)cc2)C(=O)NC(=O)NC1=O
- Selectivity ratio [1]: 178
- Selectivity ratio [2]: 142
- Selectivity ratio [3]: 569
- IC50 [4]: 0.88 nM

Structure (SMILES): CCOCCC1(Oc2ccc(Oc3ccc(-c4ncc(-c5ccccc5)o4)cc3)cc2)C(=O)NC(=O)NC1=O
- Selectivity ratio [1]: 103
- Selectivity ratio [2]: 144
- Selectivity ratio [3]: 43
- IC50 [4]: 7.5 nM

Structure (SMILES): CCOCCC1(Oc2ccc(Oc3ccc(-c4nc(-c5cccnc5)no4)cc3)cc2)C(=O)NC(=O)NC1=O
- Selectivity ratio [1]: 504
- Selectivity ratio [2]: 134
- Selectivity ratio [3]: 320
- IC50 [4]: 2 nM

Structure (SMILES): CCOCCC1(Oc2ccc(Oc3ccc(-c4nnc(-c5ccccc5)o4)cc3)cc2)C(=O)NC(=O)NC1=O
- Selectivity ratio [1]: 126
- Selectivity ratio [2]: 66
- Selectivity ratio [3]: 98
- IC50 [4]: 12 nM

Structure (SMILES): COCCC1(Oc2ccc(Oc3ccc(-c4nc(-c5cccc(C#N)c5)co4)cc3)cc2)C(=O)NC(=O)NC1=O
- Selectivity ratio [1]: 181
- Selectivity ratio [2]: 29
- Selectivity ratio [3]: 140
- IC50 [4]: 0.63 nM

Structure (SMILES): CCOCCC1(Oc2ccc(Oc3ccc(C(=O)NCc4cccc(F)c4)cc3)cc2)C(=O)NC(=O)NC1=O
- Selectivity ratio [1]: 120
- Selectivity ratio [2]: 74
- Selectivity ratio [3]: 25
- IC50 [4]: 0.85 nM

Structure (SMILES): CCOCCC1(Oc2ccc(Oc3ccc(-c4nc(-c5ccccc5F)co4)cc3)cc2)C(=O)NC(=O)NC1=O
- Selectivity ratio [1]: 868
- Selectivity ratio [2]: 562
- Selectivity ratio [3]: 270
- IC50 [4]: 0.93 nM

Structure (SMILES): CCOCCC1(Oc2ccc(Oc3ccc(-c4nc(-c5ccncc5)no4)cc3)cc2)C(=O)NC(=O)NC1=O
- Selectivity ratio [1]: 232
- Selectivity ratio [2]: 291
- Selectivity ratio [3]: 555
- IC50 [4]: 0.54 nM

Structure (SMILES): CCOCCC1(Oc2ccc(Oc3ccc(-c4cc(-c5ccccc5)no4)cc3)cc2)C(=O)NC(=O)NC1=O
- Selectivity ratio [1]: 38
- Selectivity ratio [2]: 11
- Selectivity ratio [3]: 571
- IC50 [4]: 1.6 nM

Structure (SMILES): CCOCCC1(Oc2ccc(Oc3ccc(-c4nc(-c5ccccc5)co4)cc3)cc2)C(=O)NC(=O)NC1=O
- Selectivity ratio [1]: 259
- Selectivity ratio [2]: 58
- Selectivity ratio [3]: 115
- IC50 [4]: 2.4 nM

Structure (SMILES): CCOCCC1(Oc2ccc(Oc3ccc(-c4nc(-c5cccc(F)c5)no4)cc3)cc2)C(=O)NC(=O)NC1=O
- Selectivity ratio [1]: 56
- Selectivity ratio [2]: 88
- Selectivity ratio [3]: 95
- IC50 [4]: 7.8 nM

Structure (SMILES): CCOCCC1(Oc2ccc(Oc3ccc(-c4nc(-c5ccc(C#N)cc5)co4)cc3)cc2)C(=O)NC(=O)NC1=O
- Selectivity ratio [1]: 373
- Selectivity ratio [2]: 429
- Selectivity ratio [3]: 233
- IC50 [4]: 0.45 nM

Structure (SMILES): CCOCCC1(Oc2ccc(Oc3ccc(-c4nc(-c5ccccn5)co4)cc3)cc2)C(=O)NC(=O)NC1=O
- Selectivity ratio [1]: 158
- Selectivity ratio [2]: 74
- Selectivity ratio [3]: 57
- IC50 [4]: 1 nM

Structure (SMILES): COCCC1(Oc2ccc(Oc3ccc(-c4nc(-c5ccccc5C#N)co4)cc3)cc2)C(=O)NC(=O)NC1=O
- Selectivity ratio [1]: 342
- Selectivity ratio [2]: 173
- Selectivity ratio [3]: 516
- IC50 [4]: 0.73 nM

Structure (SMILES): CCOCCC1(Oc2ccc(Oc3ccc(-c4nc(-c5ccncc5)co4)cc3)cc2)C(=O)NC(=O)NC1=O
- Selectivity ratio [1]: 530
- Selectivity ratio [2]: 70
- Selectivity ratio [3]: 250
- IC50 [4]: 0.4 nM

Structure (SMILES): CCOCCC1(Oc2ccc(Oc3ccc(C(=O)NCc4ccc(F)cc4)cc3)cc2)C(=O)NC(=O)NC1=O
- Selectivity ratio [1]: 11
- Selectivity ratio [2]: 17
- IC50 [4]: 3.4 nM

Structure (SMILES): COCCC1(Oc2ccc(Oc3ccc(-c4nc(-c5ccc(F)cc5)co4)cc3)cc2)C(=O)NC(=O)NC1=O
- Selectivity ratio [1]: 960
- Selectivity ratio [2]: 356
- Selectivity ratio [3]: 338
- IC50 [4]: 0.57 nM

Structure (SMILES): CCOCCC1(Oc2ccc(Oc3ccc(C(=O)Nc4cccnc4)cc3)cc2)C(=O)NC(=O)NC1=O
- Selectivity ratio [1]: 190
- Selectivity ratio [2]: 63
- Selectivity ratio [3]: 120
- IC50 [4]: 0.4 nM

Structure (SMILES): CCOCCC1(Oc2ccc(Oc3ccc(-c4cnc(-c5ccccc5)o4)cc3)cc2)C(=O)NC(=O)NC1=O
- Selectivity ratio [1]: 309
- Selectivity ratio [2]: 165
- Selectivity ratio [3]: 212
- IC50 [4]: 1.7 nM

Structure (SMILES): CCOCCC1(Oc2ccc(Oc3ccc(C(=O)NCc4cccnc4)cc3)cc2)C(=O)NC(=O)NC1=O
- Selectivity ratio [1]: 27
- Selectivity ratio [2]: 26
- IC50 [4]: 2.6 nM

Structure (SMILES): COCCC1(Oc2ccc(Oc3ccc(-c4nc(-c5cccc(F)c5)co4)cc3)cc2)C(=O)NC(=O)NC1=O
- Selectivity ratio [1]: 1310
- Selectivity ratio [2]: 239
- Selectivity ratio [3]: 152
- IC50 [4]: 0.46 nM

Structure (SMILES): CCOCCC1(Oc2ccc(Oc3ccc(C(=O)NCc4ccccc4F)cc3)cc2)C(=O)NC(=O)NC1=O
- Selectivity ratio [1]: 80
- Selectivity ratio [2]: 55
- Selectivity ratio [3]: 27
- IC50 [4]: 1.1 nM

Structure (SMILES): CCOCCC1(Oc2ccc(Oc3ccc(-c4nc(-c5ccccc5F)no4)cc3)cc2)C(=O)NC(=O)NC1=O
- Selectivity ratio [1]: 176
- Selectivity ratio [2]: 102
- Selectivity ratio [3]: 167
- IC50 [4]: 3.3 nM

Structure (SMILES): CCOCCC1(Oc2ccc(Oc3ccc(-c4nc(-c5ccc(F)cc5)no4)cc3)cc2)C(=O)NC(=O)NC1=O
- Selectivity ratio [1]: 114
- Selectivity ratio [2]: 80
- Selectivity ratio [3]: 210
- IC50 [4]: 6.1 nM

Structure (SMILES): CCOCCC1(Oc2ccc(Oc3ccc(-c4nc(-c5cccc(C#N)c5)co4)cc3)cc2)C(=O)NC(=O)NC1=O
- Selectivity ratio [1]: 134
- Selectivity ratio [2]: 58
- Selectivity ratio [3]: 155
- IC50 [4]: 0.53 nM

Structure (SMILES): CCOCCC1(Oc2ccc(Oc3ccc(C(=O)NCc4ccccn4)cc3)cc2)C(=O)NC(=O)NC1=O
- Selectivity ratio [1]: 30
- Selectivity ratio [2]: 17
- IC50 [4]: 6.1 nM

Structure (SMILES): CCOCCC1(Oc2ccc(Oc3ccc(C(=O)NCc4ccccc4)cc3)cc2)C(=O)NC(=O)NC1=O
- Selectivity ratio [1]: 27
- Selectivity ratio [2]: 21
- IC50 [4]: 8 nM

Structure (SMILES): COCCC1(Oc2ccc(Oc3ccc(-c4nc(-c5ccccc5F)co4)cc3)cc2)C(=O)NC(=O)NC1=O
- Selectivity ratio [1]: 605
- Selectivity ratio [2]: 288
- Selectivity ratio [3]: 149
- IC50 [4]: 1.4 nM

Structure (SMILES): CCOCCC1(Oc2ccc(Oc3ccc(-c4noc(-c5ccccc5)n4)cc3)cc2)C(=O)NC(=O)NC1=O
- Selectivity ratio [1]: 37
- Selectivity ratio [2]: 27
- IC50 [4]: 0.84 nM

Structure (SMILES): CCOCCC1(Oc2ccc(Oc3ccc(-c4nc(-c5ccc(F)cc5)co4)cc3)cc2)C(=O)NC(=O)NC1=O
- Selectivity ratio [1]: 573
- Selectivity ratio [2]: 455
- Selectivity ratio [3]: 243
- IC50 [4]: 0.68 nM

Structure (SMILES): CCOCCC1(Oc2ccc(Oc3ccc(-c4nc(-c5cccnc5)co4)cc3)cc2)C(=O)NC(=O)NC1=O
- Selectivity ratio [1]: 124
- Selectivity ratio [2]: 38
- Selectivity ratio [3]: 265
- IC50 [4]: 0.34 nM
